Measured values published in article PMC9607599, “Dual Targeting Ligands—Histamine H3 Receptor Ligands with Monoamine Oxidase B Inhibitory Activity—In Vitro and In Vivo Evaluation” (Pharmaceutics, 2022).
Where “and” joins values, the source holds several entries; their conditions need not be identical. Equal entries are not always repeated. Structures can show the parent of a compound that is named as a salt. Where two headings read alike, the source gives them in different places.

What was measured:
[1] = parallel artificial membrane permeability assay (PAMPA); type: in vitro ADME
[2] = target: T1, human histamine H3 receptor (hH3R) (Homo sapiens, UniProt Q9Y5N1); experiment: [3H]Nα-methylhistamine radioligand binding assay in CHO-K1 cells stably expressing hH3R; parameters: expressed in transfected cells; host or cells: CHO-K1; conditions: CHO-K1 cells; [3H]Nα-methylhistamine; mean ± SEM of three independent experiments; read-out: hH3R Ki [nM] ± SEM
Procedure: Affinity to hH3R stably expressed in CHO-K1 [6] or HEK293 [11] cells was evaluated in a radioligand binding assay as described previously. Briefly, 10 mM stock solutions of the test compounds in DMSO were prepared. Each compound was tested at eight concentrations ranging from 10^−5 to 10^−12 M (final concentration). All assays were carried out in duplicate. […] The radioactivity was counted in MicroBeta 2 [6] or MicroBeta Trilux counter (PerkinElmer). Data were fitted to a one-site curve-fitting equation with Prism 6 (GraphPad Software, San Diego, CA, USA) and Ki values were calculated from IC50 values (from at least three experiments performed in duplicates) according to the Cheng−Prusoff equation [12].
Affinity for hH3R was evaluated in a radioligand binding assay using [^3H]N^α-methylhistamine as radioligand in CHO K1 or HEK293 cells stably expressing hH3R as described previously. […] Then, those with at least 50% inhibition for hH3R were selected for further testing (Ki evaluation). […] Compounds were tested in the binding assay in HEK293 cells.

[3] = MTT cell viability test on human astrocytes; type: cell-based; conditions: human; 24 h; at 0.15 and 0.25 mg/mL; read-out: decline in cell viability in comparison to the control level
Procedure: (§1) The studies were performed on a commercially-available astrocyte cell line isolated from human cerebral cortex (ScienCell Research Laboratories, San Diego, CA, USA; Cat no. 1800). The cells (passage 7–8) were seeded into a 96-well plate at an amount of 10,000 cells/well and kept in accordance with the ScienCell Research Laboratories’ protocol, i.e., in astrocyte medium supplemented with 2% fetal bovine serum, 10% astrocyte growth supplement and 1% penicillin/streptomycin solution, in an atmosphere with 5% CO2 at 37 °C. The cells were allowed to grow for 24 h and then treated with increasing concentrations of test compounds (0.01–0.25 mg/mL) for 24 and 72 h. Astrocytes in the medium on each plate (regardless of the factors tested) were used as a positive control.
(§2) The viability of the astrocyte cell line was determined calorimetrically using 3-(4,5-dimethylthazol-2-yl)-2,5-diphenyltetrazolium bromide (MTT; Sigma-Aldrich Chemical Co. Ltd., Saint Louis, MO, USA) as described earlier. […] After the incubation time (24 or 72 h) with examined drugs, 50 μL MTT solution (1 mg/mL) was added to each well of the plate for another 4 h. The method is based on the reduction of a yellow tetrazolium salt (MTT) into purple formazan crystals by mitochondrial succinate-tetrazolium reductase system which is metabolically active in viable cells. At the end of the experiment, the cells were treated with 100 μL dimethyl sulphoxide, which enabled the release of the reaction product.
(§3) The absorbance was measured at 570 nm using a BioTek EL×800 microplate reader (BioTek, Winooski, Vermont, USA) and results were expressed as a percentage of the absorbance measured in control cells. The obtained values were plotted against different concentrations of each compound to calculate the viability inhibition concentration at 50% (IC50) using GraphPad Prism 6.07 (GraphPad Software, Inc., San Diego, CA, USA). The experiment was repeated in quadruplicate.
(§4) For the cytotoxicity assessment in the MTT assays, each test drug was used at 8 concentrations (range: 0.01–0.25 mg/mL).

[4] = tested on: astrocyte cell line isolated from human cerebral cortex; experiment: MTT cell viability test on human astrocytes; type: cell-based; conditions: Astrocyte, human astrocytes, MTT
Procedure: as §1, §2, §3, §4

[5] = target: T2, human MAO B (hMAO B) (Homo sapiens, UniProt P27338); experiment: fluorometric MAO assay (p-tyramine substrate); type: biochemical; conditions: fluorometric MAO assay; mean ± SEM of 2–4 independent experiments
T2 sequence (P27338 1-520): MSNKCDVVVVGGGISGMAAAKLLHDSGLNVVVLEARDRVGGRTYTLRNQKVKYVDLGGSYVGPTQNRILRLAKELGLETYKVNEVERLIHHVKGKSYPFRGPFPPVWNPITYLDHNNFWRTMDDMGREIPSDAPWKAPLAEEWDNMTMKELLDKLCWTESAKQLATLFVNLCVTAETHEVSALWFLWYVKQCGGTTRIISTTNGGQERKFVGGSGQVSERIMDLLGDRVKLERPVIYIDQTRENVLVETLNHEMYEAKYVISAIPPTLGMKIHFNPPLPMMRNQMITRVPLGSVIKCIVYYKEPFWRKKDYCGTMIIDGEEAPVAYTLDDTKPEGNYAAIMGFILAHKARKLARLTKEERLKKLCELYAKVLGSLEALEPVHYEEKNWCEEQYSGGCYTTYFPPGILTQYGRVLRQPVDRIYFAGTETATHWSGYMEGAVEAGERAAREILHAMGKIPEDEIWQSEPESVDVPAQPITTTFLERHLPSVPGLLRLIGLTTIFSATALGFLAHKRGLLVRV
Procedure: The precise method was described in [6]. First, compounds 4–32 were screened for hMAO B inhibitory activity at 1 μM concentration by the fluorometric method. Para-tyramine (200 μM) was used as a substrate for the enzyme and safinamide (1 μM) was used as a reference compound. […] Each experiment was performed in duplicate.
All compounds were first screened for hMAO B inhibitory activity at the concentration of 1 μM. […] Based on the results, we selected compounds 9 and 13 for further analysis.

[6] = target: T3, MAO B (Homo sapiens, UniProt P27338); experiment: reversibility of MAO B inhibition (reactivation by excess p-tyramine, with/without preincubation); type: biochemical; conditions: inhibitor at IC80
T3 sequence (P27338 1-520): T2 sequence (P27338 1-520)
Procedure: The reversibility of the MAO inhibition was tested as described in [6, 7]. […] Two variants of experiment were performed. […] After 22 min, the concentration of the substrate was increased to 200 µM and the signal was measured for 5 h.

[7] = target: T2, human MAO B (hMAO B); experiment: modality of hMAO B inhibition (Michaelis-Menten / Lineweaver-Burk); type: biochemical
Procedure: Modality of hMAO B inhibition was evaluated for compounds 9 and 13 and the reference safinamide according to the method described previously. Three concentrations of inhibitors, corresponding to their IC20, IC50 and IC80 values, were used. Each experiment was performed in triplicate. KM and Vmax values were calculated from Michaelis–Menten curves by nonlinear regression from the substrate. Lineweaver–Burk plots were calculated using linear regression in GraphPad Prism 6.07 (GraphPad Software, San Diego, CA, USA).
For testing modality of enzyme inhibition, we used three concentrations of inhibitors that corresponded to their IC20, IC50 and IC80 values. Substrate (p-tyramine) was used at concentrations: 0.05, 0.1, 0.5, 1.0, 1.5 and 2.0 mM.

[8] = target: T1, human histamine H3 receptor (hH3R); parameters: expressed in transfected cells; conditions: HEK293 cells; read-out: hH3R Ki [nM] [95%CI]; cited from earlier work
[9] = inhibitor at IC20, IC50, IC80, p-tyramine 0.05–2.0 mM

T1 sequence (Q9Y5N1 whole entry): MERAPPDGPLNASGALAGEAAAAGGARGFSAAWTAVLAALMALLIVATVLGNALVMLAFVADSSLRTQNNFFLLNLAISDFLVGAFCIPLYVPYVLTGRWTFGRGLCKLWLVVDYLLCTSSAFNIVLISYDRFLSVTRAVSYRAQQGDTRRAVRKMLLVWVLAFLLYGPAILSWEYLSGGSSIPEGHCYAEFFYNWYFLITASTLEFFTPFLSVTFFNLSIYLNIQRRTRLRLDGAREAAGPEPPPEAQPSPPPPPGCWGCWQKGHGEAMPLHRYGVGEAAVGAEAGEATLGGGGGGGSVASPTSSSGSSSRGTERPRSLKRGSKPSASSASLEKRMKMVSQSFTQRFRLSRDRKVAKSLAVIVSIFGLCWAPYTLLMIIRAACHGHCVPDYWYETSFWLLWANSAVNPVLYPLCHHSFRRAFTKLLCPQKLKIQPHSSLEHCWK

SMILES	melting point [°C]	permeability in PAMPA, in words [1]	Pe (×10^−6cm/s) ± SD ([1]; PAMPA, triplicate, breakpoint for permeable compounds Pe ≥ 1.5×10^−6 cm/s)	Ki [2] [nM]	viability at 24 h [3] [%]	IC50 ([4]; 24 h incubation, read-out: IC50 24 h)	IC50 ([4]; 72 h incubation, read-out: IC50 72 h)	IC50 [5] [nM]	effect of 30 min preincubation on inhibition (preincubated vs non-preincubated) [6]	reversibility of MAO B inhibition ([6]; excess p-tyramine 200 µM)	Affinity (free enzyme vs enzyme-substrate complex) [7]	Mode of inhibition from kinetic values and LB plot [7]	Lines on LB plot ([7]; Lineweaver–Burk double-reciprocal plot)	app. KM [7, 9]	app. Vmax [7, 9]	app. Vmax/app. KM [7, 9]	Ki [8] [nM]
CCCN(CCC)CCCOc1ccc(C(C)(C)C)cc1.O=C(O)C(=O)O [Compound 9, 3-(4-(tert-Butyl)phenoxy)-N,N-dipropylpropan-1-amine hydrogen oxalate]	139 to 142	not able to cross the artificial membrane	^---- -- ^c	323 ± 73	> 95	144 µM and 55 µg/mL	123 µM and 47 µg/mL	2	did not show differences between the variants	reversible inhibition	Free enzyme ≈ enzyme-substrate complex	noncompetitive inhibition	Lines intersect to the left of y-axis directly on x-axis	No effect ^a	↓ curvilinearly with ↑ [I]	↓ curvilinearly with ↑ [I]	–
CC1CCCCN1CCCOc1ccc(C(C)(C)C)cc1 (centres unmarked) [Compound 10, 1-(3-(4-(tert-Butyl)phenoxy)propyl)-2-methylpiperidine hydrogen oxalate]	–	–	–	–	–	–	–	–	–	–	–	–	–	–	–	–	< 100
